# Measurements from patent publication US20220402867A1, “SULFO-SUBSTITUTED BIARYL COMPOUND OR SALT THEREOF, PREPARATION METHOD THEREFOR, AND USE THEREOF” (Shanghai Litedd Co., Ltd., priority 2019, published 2022).
# Where two headings read alike, the source gives them in different places.
# Tests used:
# [1] = molecular target: T1, RORγt (RORγ-LBD chimeric receptor) (Homo sapiens, UniProt P51449); test: Luciferase reporter gene assay of RORγt agonistic activity in HEK293T cells; type: cell-based; parameters: Emax: dose or concentration left out as unconfirmed; details: for EC50: HEK293T, GAL4 luciferase reporter, read-out: EC50; for Emax: HEK-293T
# T1 construct: host or cells: HEK293T
# T1 sequence (P51449 269-508 limits assumed): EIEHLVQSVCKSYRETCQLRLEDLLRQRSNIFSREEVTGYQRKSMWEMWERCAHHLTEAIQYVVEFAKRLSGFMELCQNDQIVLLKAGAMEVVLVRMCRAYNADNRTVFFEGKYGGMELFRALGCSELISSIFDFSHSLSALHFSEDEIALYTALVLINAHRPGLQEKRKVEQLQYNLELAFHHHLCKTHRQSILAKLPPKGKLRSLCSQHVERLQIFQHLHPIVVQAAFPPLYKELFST
# In short: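 EC50 derived from % activity (relative to positive control and vehicle) versus log concentration, using luciferase luminescence in transfected HEK293T cells. The cells carried a RORγ-LBD/GAL4 chimera plus a GAL4-promoter reporter; compounds were 3-fold serially diluted, 10 points from a 10 mM DMSO stock.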
# [2] = test system: human PBMC (Th17 cells); test: Th17 differentiation and IL-17 secretion in human PBMC; type: cell-based; details: IL-17 ELISA after 48 hours; for Emax: maximum activation rate
# Method: Test procedure: PBMC cells were first thawed and plated, and then stimulated with stimulating factors (anti-hCD28: 5 μg/mL; rhTGF-β1: 5 ng/mL; rhIL-6: 20 ng/mL; rhIL-23: 10 ng/Ml) to differentiate to Th17, while adding different concentrations of compounds. All test compounds were serially diluted at 3-fold dilution with DMSO, with 8 serial dilutions starting from the maximum concentration 3 μM. The supermatants were collected after 48 hours for IL-17 ELISA detection, and compared with the solvent group, to determine the activation rate of the compounds on Th17 cells to secrete IL-17. EC50 values were fitted with Graphad8.0, and the TOP values fitted by the software was Emax %.
# [3] = Metabolic stability in human liver microsomes; type: in vitro ADME; details: for microsomal CLint: 0.5 mg protein/mL
# In short: (§1)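 Compound incubated at 37 °C with 0.5 mg protein/mL liver microsomes plus cofactors in PBS, sampled at 0–60 min, quenched with cold acetonitrile and quantified by HPLC-MS/MS (n=3). Half-life and Clint (μL/min/mg) come from the slope of ln(% remaining) versus time.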
# [4] = Metabolic stability in mouse liver microsomes; type: in vitro ADME, CD-1 mice; details: for half-life: CD-1; for microsomal CLint: CD-1, 0.5 mg protein/mL
# In short: as §1
# [5] = Pharmacokinetic (PK) assay in mice; type: in vivo; details: CD-1 mice; for AUC(0-t) / Cmax / half-life / Vd / bioavailability: mouse, plasma; for Vd: read-out: Vss; for bioavailability: Po 5 mg/kg vs IV 1 mg/kg
# In short: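 Plasma concentrations were quantified by UPLC-MS/MS in EDTA-K2 plasma collected from the saphenous vein over 0–24 h, and PK parameters were derived from them. Two groups of 3 CD-1 mice were used: 5 mg/kg oral gavage (DMSO/1% methylcellulose 1:99) and 1 mg/kg intravenous (5% DMSO/40% PEG400/55% (20% 3-CD)).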
Structure (SMILES),EC50 [1],Emax [1],EC50 [2],Emax [2],half-life [3],microsomal CLint [3],% Remaining (T = 60 min) [3],% Remaining (T = 60 min) [4],half-life [4],microsomal CLint [4],"CL_obs ([5]; IV 1 mg/kg, values marked **)",AUC(0-t) ([5]; IV 1 mg/kg),Cmax ([5]; IV 1 mg/kg),half-life ([5]; IV 1 mg/kg),bioavailability [5],AUC(0-t) ([5]; Po 5 mg/kg),Cmax ([5]; Po 5 mg/kg),half-life ([5]; Po 5 mg/kg),CL_obs ([5]; IV 1 mg/kg),Vd ([5]; IV 1 mg/kg),other results
"CCS(=O)(=O)c1ccc(CC(=O)Nc2cc(Cl)c(-c3ccc(S(C)(=O)=O)cc3)c(Cl)c2)nc1 [Example 8, N-(2,6-Dichloro-4′-(methylsulfonyl)-[1,1′-biphenyl]-4-yl)-2-(5-(ethylsulfonyl)pyridin-2-yl)acetamide]",44 nM,37.9%,347 nM,129%,> 2.42 h,< 9.6 µL/min/mg,95.6%,107.80%,> 2.42 h,< 9.6 µL/min/mg,,,,,,,,,,,
"CCS(=O)(=O)c1ccc(-c2c(Cl)cc(NC(=O)Cc3ccc(S(C)(=O)=O)cn3)cc2Cl)cc1 [Example 9, N-(2,6-Dichloro-4′-(ethylsulfonyl)-[1,1′-biphenyl]-4-yl)-2-(5-(methylsulfonyl)pyridin-2-yl)acetamide]",53 nM,51.5%,360 nM,167%,> 2.42 h,< 9.6 µL/min/mg,102.5%,64.20%,1.64 h,,,,,,,,,,,,
"COCC(C(=O)Nc1cc(Cl)c(-c2ccc(S(=O)(=O)C3CC3)cc2)c(Cl)c1)c1ccc(S(C)(=O)=O)cc1 (centres unmarked) [Example 20, N-(2,6-Dichloro-4′-(cyclopropylsulfonyl)-[1,1′-biphenyl]-4-yl)-3-methoxy-2-(4-(methylsulfonyl)phenyl)propionamide]",81 nM,63.5%,18.9 nM,228%,1.34 h,17.3 µL/min/mg,53.9%,75.50%,2.21 h,10.5 µL/min/mg,1.98** mL/min/kg,8280 ng·h/mL,1160 ng/mL,4.85 h,57.3%,21600 ng·h/mL,1660 ng/mL,6.95 h,,,"Vd ([5]; IV 1 mg/kg, values marked *): 0.75 L/kg"
"CCS(=O)(=O)c1ccc(C(COC)C(=O)Nc2cc(Cl)c(-c3ccc(S(=O)(=O)C4CC4)cc3)c(Cl)c2)cc1 (centres unmarked) [Example 16, N-(2,6-Dichloro-4′-(cyclopropylsulfonyl)-[1,1′-biphenyl]-4-yl)-2-(4-(ethylsulfonyl)phenyl)-3-methoxypropionamide]",181 nM,85.6%,27.3 nM,202%,> 2.42 h,< 9.6 µL/min/mg,100.7%,68.90%,2.24 h,10.7 µL/min/mg,4.51** mL/min/kg,3660 ng·h/mL,1170 ng/mL,3.88 h,56.3%,10300 ng·h/mL,1420 ng/mL,3.3 h,,,"Vd ([5]; IV 1 mg/kg, values marked *): 1.1 L/kg"
"CCS(=O)(=O)c1ccc(-c2c(Cl)cc(NC(=O)Cc3ccc(S(C)(=O)=O)cc3)cc2Cl)cc1 [Example 4, N-(2,6-Dichloro-4′-(ethylsulfonyl)-[1,1′-biphenyl]-4-yl)-2-(4-(methylsulfonyl)phenyl)acetamide]",17 nM,64%,30.4 nM,152%,> 2.42 h,< 9.6 µL/min/mg,83.4%,22.20%,0.47 h,,,,,,,,,,,,
"CS(=O)(=O)c1ccc(CC(=O)Nc2cc(Cl)c(-c3ccc(S(=O)(=O)C4CC4)cc3)c(Cl)c2)cc1 [Example 11, N-(2,6-Dichloro-4′-(cyclopropylsulfonyl)-[1,1′-biphenyl]-4-yl)-2-(4-(methylsulfonyl)phenyl)acetamide]",15 nM,45%,52.8 nM,149%,> 2.42 h,< 9.6 µL/min/mg,110.5%,97.10%,> 2.42 h,< 9.6 µL/min/mg,,7250 ng·h/mL,709 ng/mL,6.33 h,86.1%,31200 ng·h/mL,3810 ng/mL,4.52 h,128.6 mL/h/kg,1.04 L/kg,
"CCS(=O)(=O)c1ccc(-c2c(Cl)cc(NC(=O)C(COC)c3ccc(S(=O)(=O)CC)cc3)cc2Cl)cc1 (centres unmarked) [Example 13, N-(2,6-Dichloro-4′-(ethylsulfonyl)-[1,1′-biphenyl]-4-yl)-2-(4-(ethylsulfonyl)phenyl)-3-methoxypropionamide]",69 nM,71.9%,6.2 nM,139%,2.07 h,,71.4%,28%,0.543 h,,,786 ng·h/mL,1320 ng/mL,0.63 h,24.2%,952 ng·h/mL,1220 ng/mL,0.54 h,1264.7 mL/h/kg,0.713 L/kg,
"CCS(=O)(=O)c1ccc(-c2c(Cl)cc(NC(=O)Cc3ccc(S(=O)(=O)CC)cn3)cc2Cl)cc1 [Example 5, N-(2,6-Dichloro-4′-(ethylsulfonyl)-[1,1′-biphenyl]-4-yl)-2-(5-(ethylsulfonyl)pyridin-2-yl)acetamide]",37 nM,69.6%,33.2 nM,123%,> 2.42 h,< 9.6 µL/min/mg,76.7%,35.50%,0.707 h,,,730 ng·h/mL,1360 ng/mL,0.45 h,38.8%,1420 ng·h/mL,1770 ng/mL,0.5 h,1367 mL/h/kg,0.893 L/kg,
"CCS(=O)(=O)c1ccc(CC(=O)Nc2cc(Cl)c(-c3ccc(S(C)(=O)=O)cc3)c(Cl)c2)cc1 [Example 2, N-(2,6-dichloro-4′-(methylsulfonyl)-[1,1′-biphenyl]-4-yl)-2-(4-(ethylsulfonyl)phenyl)acetamide]",19 nM,43%,61.6 nM,138%,> 2.42 h,< 9.6 µL/min/mg,75.7%,89.30%,> 2.42 h,< 9.6 µL/min/mg,,2250 ng·h/mL,737 ng/mL,1.76 h,112%,12600 ng·h/mL,3030 ng/mL,2.46 h,426.2 mL/h/kg,1.09 L/kg,
"COCC(C(=O)Nc1ccc(-c2ccc(S(=O)(=O)C3CC3)cc2)c(C(F)(F)F)c1)c1ccc(S(C)(=O)=O)cc1 (single isomer, unassigned) [Example 43, (S)—N-(4′-(cyclopropylsulfonyl)-2-(trifluoromethyl)-[1,1′-biphenyl]-4-yl)-3-methoxy-2-(4-(methylsulfonyl)phenyl)propionamide or (R)—N-(4′-(cyclopropylsulfonyl)-2-(trifluoromethyl)-[1,1′-biphenyl]-4-yl)-3-methoxy-2-(4-(methylsulfonyl)phenyl)propanamide]",57 nM,64.1%,135 nM,265%,1.68 h,13.8 µL/min/mg,69%,64.4%,1.56 h,14.8 µL/min/mg,4.31** mL/min/kg,3810 ng·h/mL,787 ng/mL,4.14 h,89.1%,17100 ng·h/mL,3040 ng/mL,3.51 h,,,"Vd ([5]; IV 1 mg/kg, values marked *): 1.38 L/kg"
